The values below are quoted from earlier work in patent US6627219B2, “Oily capsule preparation and the method for preparing same” (Pharmaceutical Industry Technology and Development Center, priority 2000, dated 2003).

Assay in data set [1]: not given
The source holds these as a separate data set.

Structures are written as SMILES. Read-outs that look alike come from different tables or passages of the source.

In the case of `COc1ccc2[nH]c([S+]([O-])Cc3ncc(C)c(OC)c3C)nc2c1` (stereo not drawn) [Omeprazole, 5-methoxy-2(((4-methoxy-3,5-dimethyl-2-pyridinyl)methyl)sulfinyl)1H-benzimidazole], the solubility in water result is given as “hardly soluble in water”. Besides, in data set [1] (basic medium of a pH higher than 7), the stability entry was “stable”. Besides, the stability result in data set [1] (neutral or acid medium) is listed as “easily degraded or denatured”.
